Measurements as given in ChEMBL document CHEMBL6092182, “Enhanced Plasma Stability and Potency of Aryl/Acyloxy Prodrugs of a BTN3A1 Ligand” (ACS Med Chem Lett, 2024).

Key:
[1] = Prodrug conversion in human plasma assessed as formation of di-anion metabolite by measuring metabolite peak intensity at 100 uM incubated for 1 hr by LCMS analysis; type: ADME, cell-free; set-up: unit not given here
[2] = Stability in human plasma assessed as compound remaining at 100 uM measured after 2 hrs by MS analysis; type: ADME, cell-free; conditions: for Stability: 2 h, 100 µM
[3] = Stability in mouse plasma assessed as compound remaining measured after 2 hrs by MS analysis; type: ADME, cell-free
[4] = Prodrug conversion in human K562 cells assessed as formation of di-anion metabolite by measuring metabolite peak intensity at 100 uM incubated for 1 hr by LCMS analysis; type: functional
[5] = Stimulation of IL-2-treated human Vgamma9Vdelta2 T cell proliferation assessed as IFN-gamma release pretreated human […] cells with compound for 1 hr followed by compound washout and addition of washed K562 cells to medium containing Vgamma9Vdelta2 T cells measured after 20 hrs by ELISA; type: functional, cell-based
[6] = Prodrug conversion in human K562 cells assessed as formation of mono-anion metabolite by measuring metabolite peak intensity at 100 uM incubated for 1 hr by LCMS analysis; type: functional
[7] = Stimulation of IL-2-treated human Vgamma9Vdelta2 T cell proliferation incubated for 72 hrs followed by compound washout measured after 11 days by flow cytometry; type: functional, cell-based
[8] = Prodrug conversion in human plasma assessed as formation of mono-anion metabolite by measuring metabolite peak intensity at 100 uM incubated for 1 hr by LCMS analysis; type: ADME, cell-free
[9] = Prodrug conversion in human plasma assessed as formation of Ac-monoanion metabolite by measuring metabolite peak intensity at 100 uM incubated for 1 hr by LCMS analysis; type: ADME, cell-free
[10] = Stability in human plasma assessed as half life at 100 uM by LCMS analysis; type: ADME, cell-free
[11] = Prodrug conversion in human K562 cells assessed as formation of Ac-monoanion metabolite by measuring metabolite peak intensity at 100 uM incubated for 1 hr by LCMS analysis; type: functional
[12] = Stability in rat plasma assessed as compound remaining measured after 2 hrs by MS analysis; type: ADME, cell-free
[13] = Stability in mouse plasma assessed as half life measured after 2 hrs by MS analysis; type: ADME, cell-free

Row | Structure (SMILES) | Activity [1] | Stability [2] | Stability [3] | Activity [4] | EC50 [5] | Activity [6] | EC50 [7] | Activity [8] | Activity [9] | t1/2 [10] | Activity [11] | Stability [12] | t1/2 [13] | remaining at 2 h, 100 µM ([2]; read-out: Stability)
1 | C/C(=C\CCP(=O)(OCOC(=O)c1ccccc1)Oc1ccc(C(C)C)cc1)CO (stereo unspecified) | 0 | 13% | Stable | 830 | 7 nM | 10000 | 0.43 nM | 7900 | – | – | – | – | – | –
2 | CC(=O)OC/C(C)=C/CCP(=O)(OCOC(=O)c1ccccc1)Oc1ccc(C(C)C)cc1 (stereo unspecified) | 0 | 34% | Stable | 870 | 2.6 nM | 8800 | 0.27 nM | 300 | 12000 | 66 min | 180 | – | – | –
3 | C/C(=C\CCP(=O)(OCOC(=O)CC1CCOCC1)Oc1cccc2ccccc12)CO (stereo unspecified) | 0 | 0% | Stable | 690 | 4.8 nM | 3200 | 0.37 nM | 11000 | – | 5.9 min | – | 65% | 5.6 min | –
4 | CC(=O)OC/C(C)=C/CCP(=O)(OCOC(=O)C1CCOCC1)Oc1ccc(C(C)C)cc1 (stereo unspecified) | 0 | 0% | Stable | 1700 | 2.2 nM | 8200 | 1.2 nM | 3200 | 9900 | 16 min | 67 | – | – | –
5 | C/C(=C\CCP(=O)(OCOC(=O)CC1CCOCC1)Oc1ccc(C(C)C)cc1)CO (stereo unspecified) | 0 | 0% | Stable | 640 | 2.2 nM | 6600 | 0.53 nM | 16000 | – | – | – | – | – | –
6 | CC(=O)OC/C(C)=C/CCP(=O)(OCOC(=O)CC1CCOCC1)Oc1ccc(C(C)C)cc1 (stereo unspecified) | 0 | 28% | Stable | 1000 | 3.5 nM | 6300 | 0.44 nM | 3000 | 6100 | 42 min | 49 | – | – | –
7 | CC(=O)OC/C(C)=C/CCP(=O)(OCOC(=O)CC1CCOCC1)Oc1cccc2ccccc12 (stereo unspecified) | 0 | 7% | Stable | 880 | 5.4 nM | 3000 | 0.66 nM | 2800 | 2900 | 15 min | 4 | – | – | –
8 | C/C(=C\CCP(=O)(OCOC(=O)CC1CCCCC1)Oc1ccc(C(C)C)cc1)CO (stereo unspecified) | 0 | 80% | Stable | 500 | 2.8 nM | 4800 | 1.1 nM | 4500 | – | 94 min | – | – | – | –
9 | C/C(=C\CCP(=O)(OCOC(=O)C1CCCCC1)Oc1ccccc1)CO (stereo unspecified) | – | – | – | – | – | – | – | – | – | – | – | – | – | 0%
10 | C/C(=C\CCP(=O)(OCOC(=O)C1CCOCC1)Oc1ccc(C(C)C)cc1)CO (stereo unspecified) | 0 | 0% | Stable | 1500 | 0.89 nM | 18000 | 0.97 nM | 13000 | – | 11 min | – | – | – | –
11 | COc1ccc(C(=O)OCOP(=O)(CC/C=C(\C)CO)Oc2ccc(C(C)C)cc2)cc1 (stereo unspecified) | 0 | 71% | Stable | 590 | 6.4 nM | 6000 | 1.5 nM | 5900 | – | 500 min | – | – | – | –
12 | CC(=O)OC/C(C)=C/CCP(=O)(OCOC(=O)CC1CCCCC1)Oc1ccc(C(C)C)cc1 (stereo unspecified) | 0 | 90% | Stable | 410 | 3 nM | 3900 | 0.54 nM | 330 | 2400 | 750 min | 54 | – | – | –
13 | COc1ccc(C(=O)OCOP(=O)(CC/C=C(\C)COC(C)=O)Oc2ccc(C(C)C)cc2)cc1 (stereo unspecified) | 0 | 62% | Stable | 360 | 4.1 nM | 3900 | 0.84 nM | 830 | 3500 | 180 min | 18 | – | – | –
